We go through nine compounds from patent US8383581B2, “Short-chain peptides as parathyroid hormone (PTH) receptor agonist” (Cadila Healthcare Limited, priority 2009, dated 2013).

Molecules are shown by their SMILES. Where a SMILES comes first, the peptide text is derived from it. [ ]: non-standard residue; d: D form. ξ: configuration not given here. ξαMeBip(2'-Et,4'-OMe) = CCc1cc(OC)ccc1-c1ccc(CC(C)(N)C(=O)O)cc1; Arg(NO2) = N=C(NCCC[C@H](N)C(=O)O)N[N+](=O)[O-]; αMePhe(2,6-F2) = C[C@](N)(Cc1c(F)cccc1F)C(=O)O; ξαMePhe(2,6-F2) = CC(N)(Cc1c(F)cccc1F)C(=O)O; ξαMePhe(2-F) = CC(N)(Cc1ccccc1F)C(=O)O; hhPhe = N[C@@H](CCCc1ccccc1)C(=O)O; hArg = N=C(N)NCCCC[C@H](N)C(=O)O; Cit = NC(=O)NCCC[C@H](N)C(=O)O; Nle = CCCC[C@H](N)C(=O)O; ξαMeP = CC1(C(=O)O)CCCN1; Ac5c = NC1(C(=O)O)CCCC1; Ac3c = NC1(C(=O)O)CC1; Aib = CC(C)(N)C(=O)O

Common to all, as to format: in vitro ADME
Series [1] in a line: Stability of peptides in human plasma. The settings on record: human, plasma; for metabolised at 24 h, 2 μM: pH 7.8. In outline: (§1)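 Peptides at 2 μM final incubated 0–24 h at 37 °C (50 mM triethanolamine-HCl, pH 7.8) in each matrix, matrix level set to degrade ~50% PTH(1-34) in 1 h; TFA-quenched, C18 HPLC at 206 nm with ESI-MS peak identification; percent degradation from peak areas at each time point.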

The nature of series [2]: Stability of peptides in human liver microsomes. Conditions: human, microsomes; for % degradation of peptides in 24 h when incubated with liver microsomes: 2 μM, pH 7.8. In a few lines:
as §1

The nature of series [3]: Stability of peptides in simulated gastric fluid (pH 1.5; HCl, NaCl and Pepsin). The settings on record: pH 1.5; for % degradation of peptides in 24 h when incubated with simulated gastric fluid: 2 μM; for half-life / half-life (t1/2) in simulated gastric fluid: simulated gi fluid.
The nature of series [4]: Stability of peptides in simulated intestinal fluid (pH 7.5). The settings on record: pH 7.5; for half-life / half-life (t1/2) in simulated intestinal fluid: simulated gi fluid; for % degradation of peptides in 24 h when incubated with simulated intestinal fluid: 2 μM. In outline: as §1

One may read the half-life as how long it takes for the measured level to halve. Read a high half-life as slow decline. As for `CCCCC(C)(NC(=O)[C@H](CC(C)C)NC(=O)[C@H](CCC(N)=O)NC(=O)[C@@H](NC(=O)[C@H](CCC(=O)O)NC(=O)C(C)(C)NC(=O)[C@@H](NC(=O)C1(NC(=O)[C@@H](N)C(C)C)CCCC1)C(C)C)[C@@H](C)CC)C(=O)N[C@@H](Cc1c[nH]cn1)C(=O)N[C@@H](CCC(N)=O)C(=O)N[C@@H](CCCCNC(=N)N)C(=O)N[C@@H](C)C(=O)N[C@@H](CCCCNC(=N)N)C(=O)NC(Cc1ccc(-c2ccc(OC)cc2CC)cc1)C(=O)NC(C)(CCCc1ccccc1)C(N)=O` (single isomer, unassigned) [Seq. ID. 925], in series [1], the “half-life (t1/2) in human plasma” value is reported as “(9) h” and the metabolised at 24 h, 2 μM came out at 78%. Also, in series [2], the half-life is 0.5 h and the “% degradation of peptides in 24 h when incubated with liver microsomes” value (shortened to “% degradation … with liver microsomes”) was 100%. Further, in series [3], the “% degradation of peptides in 24 h when incubated with simulated gastric fluid” value (“% degradation … with simulated gastric fluid” for short) is listed as 100% and the half-life is 0.5 h. In series [4], the half-life was 0.5 h and the “% degradation of peptides in 24 h when incubated with simulated intestinal fluid” value (shortened to “% degradation … with simulated intestinal fluid”) was 100%.

In series [1], `CCCC[C@H](NC(=O)C(C)(Cc1ccccc1F)NC(=O)[C@H](CCC(N)=O)NC(=O)[C@@H](NC(=O)[C@H](CCC(=O)O)NC(=O)C1(NC(=O)[C@@H](NC(=O)C2(N)CCCC2)C(C)C)CCCC1)[C@@H](C)CC)C(=O)N[C@@H](Cc1c[nH]cn1)C(=O)N[C@@H](CCC(N)=O)C(=O)N[C@@H](CCCCNC(=N)N)C(=O)N1CCCC1(C)C(=O)N[C@@H](CCCCN)C(=O)NC(C)(Cc1c(F)cccc1F)C(N)=O` (stereo partly drawn) [Seq. ID. 100] (H-[Ac5c]V[Ac5c]EIQ[ξαMePhe(2-F)][Nle]HQ[hArg][ξαMeP]K[ξαMePhe(2,6-F2)]-NH2) displayed a half-life above 24 h and a metabolised at 24 h, 2 μM of 0%. In addition, in series [2], the half-life is 2 h and the “% degradation … with liver microsomes” value turned out to be 82%. In series [3], the “% degradation … with simulated gastric fluid” value is listed as 49% and the half-life is 4 h. In series [4], the half-life was above 24 h and the “% degradation … with simulated intestinal fluid” value is recorded as 00%.

In series [1], `CCCC[C@H](NC(=O)C(C)(Cc1ccccc1F)NC(=O)[C@H](CCC(N)=O)NC(=O)[C@@H](NC(=O)[C@H](CCC(=O)O)NC(=O)C(C)(C)NC(=O)[C@@H](NC(=O)C1(N)CCCC1)C(C)C)[C@@H](C)CC)C(=O)N[C@@H](Cc1c[nH]cn1)C(=O)N[C@@H](CCC(N)=O)C(=O)NC(C)(C)C(=O)NC(C)(C)C(=O)NC(C)(Cc1c(F)cccc1F)C(=O)NC(C)(Cc1c(F)cccc1F)C(N)=O` (stereo partly drawn) [Seq. ID. 580] (H-[Ac5c]V[Aib]EIQ[ξαMePhe(2-F)][Nle]HQ[Aib][Aib][ξαMePhe(2,6-F2)][ξαMePhe(2,6-F2)]-NH2) came in with a half-life of 8 h and a metabolised at 24 h, 2 μM of 75%. Also, in series [2], the half-life amounted to 1 h and the “% degradation … with liver microsomes” value is given as 83%. Also, in series [3], the “% degradation … with simulated gastric fluid” value is recorded as 12% and the “half-life (t1/2) in simulated gastric fluid” value is listed as “(8) h”. In series [4], the “half-life (t1/2) in simulated intestinal fluid” value was “(6) h” and the “% degradation … with simulated intestinal fluid” value is 46%.

Turning to `CCCC[C@H](NC(=O)[C@](C)(Cc1c(F)cccc1F)NC(=O)[C@H](CCC(N)=O)NC(=O)[C@@H](NC(=O)[C@H](CCC(=O)O)NC(=O)C(C)(C)NC(=O)[C@@H](NC(=O)C(C)(C)N)C(C)C)[C@@H](C)CC)C(=O)N[C@@H](Cc1c[nH]cn1)C(=O)N[C@@H](CCC(N)=O)C(=O)NC(C)(C)C(=O)NC(C)(C)C(=O)N[C@@H](CCCNC(N)=O)C(=O)N[C@@](C)(Cc1c(F)cccc1F)C(N)=O` [Seq. ID. 550] (H-[Aib]V[Aib]EIQ[αMePhe(2,6-F2)][Nle]HQ[Aib][Aib][Cit][αMePhe(2,6-F2)]-NH2), in series [1], the half-life stood at 8 h and the metabolised at 24 h, 2 μM was 80%. In series [2], the half-life stood at 1 h and the “% degradation … with liver microsomes” value amounted to 82%. Further, in series [3], the “% degradation … with simulated gastric fluid” value is 13% and the “half-life (t1/2) in simulated gastric fluid” value is listed as “(8) h”. In addition, in series [4], the “half-life (t1/2) in simulated intestinal fluid” value is “(6) h” and the “% degradation … with simulated intestinal fluid” value is 50%.

Take `CCCC[C@H](NC(=O)C(C)(Cc1ccccc1F)NC(=O)[C@H](CCC(N)=O)NC(=O)[C@@H](NC(=O)[C@H](CCC(=O)O)NC(=O)C1(NC(=O)[C@@H](NC(=O)C(C)(C)N)C(C)C)CCCC1)[C@@H](C)CC)C(=O)N[C@@H](Cc1c[nH]cn1)C(=O)N[C@@H](CCC(N)=O)C(=O)N[C@@H](CCCCNC(=N)N)C(=O)N1CCCC1(C)C(=O)N[C@@H](CCCCN)C(=O)NC(C)(Cc1ccccc1F)C(N)=O` (stereo partly drawn) [Seq. ID. 62] (H-[Aib]V[Ac5c]EIQ[ξαMePhe(2-F)][Nle]HQ[hArg][ξαMeP]K[ξαMePhe(2-F)]-NH2): in series [1], the half-life is above 24 h and the metabolised at 24 h, 2 μM turned out to be 0%. In series [2], the “half-life (t1/2) in liver microsomes” value is reported as “(5) h” and the “% degradation … with liver microsomes” value worked out at 33%. In series [3], the “% degradation … with simulated gastric fluid” value is on record as 00% and the half-life was above 24 h. For the same compound, in series [4], the half-life was above 24 h and the “% degradation … with simulated intestinal fluid” value is on record as 00%.

Take `CCc1cc(OC)ccc1-c1ccc(CC(C)(NC(=O)[C@H](CCCCNC(=N)N)NC(=O)[C@H](C)NC(=O)[C@H](CCCCNC(=N)N)NC(=O)[C@H](CCC(N)=O)NC(=O)[C@H](Cc2c[nH]cn2)NC(=O)[C@H](CCSC)NC(=O)[C@H](CC(C)C)NC(=O)[C@H](CCC(N)=O)NC(=O)[C@@H](NC(=O)[C@H](CCC(=O)O)NC(=O)C(C)(C)NC(=O)[C@@H](NC(=O)C(C)(C)N)C(C)C)[C@@H](C)CC)C(=O)N[C@@H](CCCc2ccccc2)C(N)=O)cc1` (stereo partly drawn) [Seq. ID. 898] (H-[Aib]V[Aib]EIQLMHQ[hArg]A[hArg][ξαMeBip(2'-Et,4'-OMe)][hhPhe]-NH2): in series [1], the half-life is above 24 h and the metabolised at 24 h, 2 μM came out at 0%. For the same compound, in series [2], the “half-life (t1/2) in liver microsomes” value is “(5) h” and the “% degradation … with liver microsomes” value turned out to be 26%. Moreover, in series [3], the “% degradation … with simulated gastric fluid” value is reported as 00% and the half-life was above 24 h. Moreover, in series [4], the half-life is above 24 h and the “% degradation … with simulated intestinal fluid” value is 00%.

In series [1], `CCCC[C@H](NC(=O)C(C)(Cc1c(F)cccc1F)NC(=O)[C@H](CCC(N)=O)NC(=O)[C@@H](NC(=O)[C@H](CCC(=O)O)NC(=O)C1(NC(=O)[C@@H](NC(=O)C(C)(C)N)C(C)C)CC1)[C@@H](C)CC)C(=O)N[C@@H](Cc1c[nH]cn1)C(=O)N[C@@H](CCC(N)=O)C(=O)N[C@@H](CCCCNC(=N)N)C(=O)N[C@@H](C)C(=O)N[C@@H](CCCNC(=N)N[N+](=O)[O-])C(=O)NC(C)(Cc1ccccc1F)C(=O)N[C@@H](CCCc1ccccc1)C(N)=O` (stereo partly drawn) [Seq. ID. 720] (H-[Aib]V[Ac3c]EIQ[ξαMePhe(2,6-F2)][Nle]HQ[hArg]A[Arg(NO2)][ξαMePhe(2-F)][hhPhe]-NH2) had a half-life above 20 h and a metabolised at 24 h, 2 μM of 10%. Besides, in series [2], the half-life was found to be 2 h and the “% degradation … with liver microsomes” value is 86%. Also, in series [3], the “% degradation … with simulated gastric fluid” value was 50% and the half-life was 4 h. In addition, in series [4], the half-life is above 24 h and the “% degradation … with simulated intestinal fluid” value is given as 00%.

In series [1], `CCCC[C@H](NC(=O)C(C)(Cc1c(F)cccc1F)NC(=O)[C@H](CCC(N)=O)NC(=O)[C@@H](NC(=O)[C@H](CCC(=O)O)NC(=O)C(C)(C)NC(=O)[C@@H](NC(=O)C1(N)CCCC1)C(C)C)[C@@H](C)CC)C(=O)N[C@@H](Cc1c[nH]cn1)C(=O)N[C@@H](CCC(N)=O)C(=O)NC(C)(Cc1c(F)cccc1F)C(=O)NC(C)(C)C(=O)N[C@@H](CCCNC(N)=O)C(=O)NC(C)(Cc1ccccc1F)C(N)=O` (stereo partly drawn) [Seq. ID. 480] (H-[Ac5c]V[Aib]EIQ[ξαMePhe(2,6-F2)][Nle]HQ[ξαMePhe(2,6-F2)][Aib][Cit][ξαMePhe(2-F)]-NH2) registered a half-life above 24 h and a metabolised at 24 h, 2 μM of 0%. Further, in series [2], the “half-life (t1/2) in liver microsomes” value is reported as “(5) h” and the “% degradation … with liver microsomes” value was found to be 32%. In series [3], the “% degradation … with simulated gastric fluid” value is given as 00% and the half-life was above 24 h. Also, in series [4], the half-life is above 24 h and the “% degradation … with simulated intestinal fluid” value is on record as 00%.

`CCCC[C@H](NC(=O)C(C)(Cc1ccccc1F)NC(=O)[C@H](CCC(N)=O)NC(=O)[C@@H](NC(=O)[C@H](CCC(=O)O)NC(=O)C(C)(C)NC(=O)[C@@H](NC(=O)C(C)(C)N)C(C)C)[C@@H](C)CC)C(=O)N[C@@H](Cc1c[nH]cn1)C(=O)N[C@@H](CCC(N)=O)C(=O)N[C@@H](CCCNC(N)=O)C(=O)N[C@@H](C)C(=O)N[C@@H](CCCNC(N)=O)C(=O)NC(C)(Cc1ccccc1F)C(N)=O` (stereo partly drawn) [Seq. ID. 345] (H-[Aib]V[Aib]EIQ[ξαMePhe(2-F)][Nle]HQ[Cit]A[Cit][ξαMePhe(2-F)]-NH2): in series [1], the “half-life (t1/2) in human plasma” value is reported as “(9) h” and the metabolised at 24 h, 2 μM was 70%. Moreover, in series [2], the half-life worked out at 0.5 h and the “% degradation … with liver microsomes” value stood at 100%. Moreover, in series [3], the “% degradation … with simulated gastric fluid” value is 100% and the half-life was 0.5 h. In series [4], the half-life is 0.5 h and the “% degradation … with simulated intestinal fluid” value was 100%.
